Test: xn = mol fraction of the nth substance listed
Conditions: 101 kPa, Liquid; for speed of sound: Sing-around technique in a fixed-path interferometer

CCOC(C)(C)C [2-ethoxy-2-methylpropane] + Cc1ccc(C)cc1
Conditions	mass density [kg/m3]	speed of sound [m/s]
288.15 K, x1 = 0.062	857.461	1332.5
288.15 K, x1 = 0.123	849.969	1315.3
288.15 K, x1 = 0.238	836.401	1283.6
288.15 K, x1 = 0.35	822.903	1252.6
288.15 K, x1 = 0.455	810.328	1223.7
288.15 K, x1 = 0.557	798.162	1195.8
288.15 K, x1 = 0.654	786.517	1169.2
288.15 K, x1 = 0.746	775.593	1144.4
288.15 K, x1 = 0.834	764.97	1120.8
288.15 K, x1 = 0.902	756.828	1102.5
288.15 K, x1 = 0.959	749.995	1087.2
288.15 K, x1 = 1	744.955	1076.4
290.65 K, x1 = 0.062	855.329	1321.8
290.65 K, x1 = 0.123	847.837	1304.4
290.65 K, x1 = 0.238	834.222	1272.7
290.65 K, x1 = 0.35	820.676	1241.5
290.65 K, x1 = 0.455	808.058	1212.6
290.65 K, x1 = 0.557	795.855	1184.6
290.65 K, x1 = 0.654	784.174	1158
290.65 K, x1 = 0.746	773.205	1133.1
290.65 K, x1 = 0.834	762.549	1109.4
290.65 K, x1 = 0.902	754.379	1091
290.65 K, x1 = 0.959	747.527	1076
290.65 K, x1 = 1	742.482	1065.1
293.15 K, x1 = 0.062	853.16	1311
293.15 K, x1 = 0.123	845.64	1293.7
293.15 K, x1 = 0.238	831.974	1261.7
293.15 K, x1 = 0.35	818.389	1230.6
293.15 K, x1 = 0.455	805.723	1201.5
293.15 K, x1 = 0.557	793.481	1173.4
293.15 K, x1 = 0.654	781.767	1146.8
293.15 K, x1 = 0.746	770.753	1121.7
293.15 K, x1 = 0.834	760.076	1098.1
293.15 K, x1 = 0.902	751.872	1079.6
293.15 K, x1 = 0.959	745.006	1064.5
293.15 K, x1 = 1	739.947	1053.7
295.65 K, x1 = 0.062	850.963	1300.3
295.65 K, x1 = 0.123	843.426	1282.9
295.65 K, x1 = 0.238	829.705	1250.9
295.65 K, x1 = 0.35	816.087	1219.6
295.65 K, x1 = 0.455	803.381	1190.5
295.65 K, x1 = 0.557	791.102	1162.2
295.65 K, x1 = 0.654	779.339	1135.5
295.65 K, x1 = 0.746	768.276	1110.5
295.65 K, x1 = 0.834	757.573	1086.7
295.65 K, x1 = 0.902	749.342	1068.2
295.65 K, x1 = 0.959	742.457	1053.1
295.65 K, x1 = 1	737.374	1042.2
298.15 K, x1 = 0.062	848.771	1289.8
298.15 K, x1 = 0.123	841.223	1272.5
298.15 K, x1 = 0.238	827.443	1240.2
298.15 K, x1 = 0.35	813.789	1208.9
298.15 K, x1 = 0.455	801.037	1179.6
298.15 K, x1 = 0.557	788.722	1151.4
298.15 K, x1 = 0.654	776.911	1124.5
298.15 K, x1 = 0.746	765.812	1099.4
298.15 K, x1 = 0.834	755.077	1075.5
298.15 K, x1 = 0.902	746.808	1057
298.15 K, x1 = 0.959	739.904	1041.9
298.15 K, x1 = 1	734.806	1031
300.65 K, x1 = 0.062	846.559	1279.4
300.65 K, x1 = 0.123	839.002	1262.1
300.65 K, x1 = 0.238	825.16	1229.7
300.65 K, x1 = 0.35	811.468	1198.2
300.65 K, x1 = 0.455	798.683	1168.9
300.65 K, x1 = 0.557	786.313	1140.5
300.65 K, x1 = 0.654	774.466	1113.6
300.65 K, x1 = 0.746	763.325	1088.4
300.65 K, x1 = 0.834	752.561	1064.5
300.65 K, x1 = 0.902	744.252	1045.9
300.65 K, x1 = 0.959	737.326	1030.6
300.65 K, x1 = 1	732.225	1019.8
303.15 K, x1 = 0.062	844.378	1269.2
303.15 K, x1 = 0.123	836.793	1251.8
303.15 K, x1 = 0.238	822.9	1219.2
303.15 K, x1 = 0.35	809.173	1187.7
303.15 K, x1 = 0.455	796.342	1158.2
303.15 K, x1 = 0.557	783.933	1129.8
303.15 K, x1 = 0.654	772.039	1102.8
303.15 K, x1 = 0.746	760.846	1077.5
303.15 K, x1 = 0.834	750.063	1053.5
303.15 K, x1 = 0.902	741.716	1034.8
303.15 K, x1 = 0.959	734.772	1019.6
303.15 K, x1 = 1	729.647	1008.6
305.65 K, x1 = 0.062	842.155	1258.9
305.65 K, x1 = 0.123	834.557	1241.4
305.65 K, x1 = 0.238	820.611	1208.8
305.65 K, x1 = 0.35	806.841	1177.1
305.65 K, x1 = 0.455	793.966	1147.5
305.65 K, x1 = 0.557	781.512	1119
305.65 K, x1 = 0.654	769.583	1091.9
305.65 K, x1 = 0.746	758.333	1066.6
305.65 K, x1 = 0.834	747.515	1042.5
305.65 K, x1 = 0.902	739.137	1023.8
305.65 K, x1 = 0.959	732.166	1008.5
305.65 K, x1 = 1	727.038	997.52
308.15 K, x1 = 0.062	839.962	1248.7
308.15 K, x1 = 0.123	832.343	1231.1
308.15 K, x1 = 0.238	818.339	1198.4
308.15 K, x1 = 0.35	804.54	1166.7
308.15 K, x1 = 0.455	791.627	1137.1
308.15 K, x1 = 0.557	779.104	1108.3
308.15 K, x1 = 0.654	767.142	1081.2
308.15 K, x1 = 0.746	755.854	1055.7
308.15 K, x1 = 0.834	745.002	1031.6
308.15 K, x1 = 0.902	736.575	1012.8
308.15 K, x1 = 0.959	729.598	997.44
308.15 K, x1 = 1	724.443	986.39
310.65 K, x1 = 0.062	837.759	1238.5
310.65 K, x1 = 0.123	830.128	1220.9
310.65 K, x1 = 0.238	816.051	1188
310.65 K, x1 = 0.35	802.206	1156.1
310.65 K, x1 = 0.455	789.243	1126.3
310.65 K, x1 = 0.557	776.705	1097.6
310.65 K, x1 = 0.654	764.679	1070.4
310.65 K, x1 = 0.746	753.335	1044.9
310.65 K, x1 = 0.834	742.455	1020.6
310.65 K, x1 = 0.902	733.99	1001.8
310.65 K, x1 = 0.959	726.994	986.36
310.65 K, x1 = 1	721.826	975.42
313.15 K, x1 = 0.062	835.532	1228.3
313.15 K, x1 = 0.123	827.882	1210.7
313.15 K, x1 = 0.238	813.765	1177.8
313.15 K, x1 = 0.35	799.872	1145.7
313.15 K, x1 = 0.455	786.866	1115.8
313.15 K, x1 = 0.557	774.27	1087
313.15 K, x1 = 0.654	762.204	1059.7
313.15 K, x1 = 0.746	750.812	1034.1
313.15 K, x1 = 0.834	739.901	1009.8
313.15 K, x1 = 0.902	731.4	990.86
313.15 K, x1 = 0.959	724.383	975.56
313.15 K, x1 = 1	719.179	964.53
315.65 K, x1 = 0.062	833.306	1218.3
315.65 K, x1 = 0.123	825.641	1200.6
315.65 K, x1 = 0.238	811.445	1167.5
315.65 K, x1 = 0.35	797.52	1135.4
315.65 K, x1 = 0.455	784.471	1105.4
315.65 K, x1 = 0.557	771.824	1076.4
315.65 K, x1 = 0.654	759.71	1049.1
315.65 K, x1 = 0.746	748.28	1023.4
315.65 K, x1 = 0.834	737.319	998.93
315.65 K, x1 = 0.902	728.791	980.02
315.65 K, x1 = 0.959	721.749	964.74
315.65 K, x1 = 1	716.527	953.54
318.15 K, x1 = 0.062	831.175	1208.1
318.15 K, x1 = 0.123	823.476	1190.2
318.15 K, x1 = 0.238	809.233	1157
318.15 K, x1 = 0.35	795.26	1124.9
318.15 K, x1 = 0.455	782.164	1094.8
318.15 K, x1 = 0.557	769.47	1065.8
318.15 K, x1 = 0.654	757.309	1038.5
318.15 K, x1 = 0.746	745.827	1012.6
318.15 K, x1 = 0.834	734.831	988.25
318.15 K, x1 = 0.902	726.264	969.29
318.15 K, x1 = 0.959	719.189	953.77
318.15 K, x1 = 1	713.96	942.67
320.65 K, x1 = 0.062	828.907	1197.9
320.65 K, x1 = 0.123	821.186	1180
320.65 K, x1 = 0.238	806.89	1146.7
320.65 K, x1 = 0.35	792.863	1114.4
320.65 K, x1 = 0.455	779.723	1084.3
320.65 K, x1 = 0.557	766.974	1055.2
320.65 K, x1 = 0.654	754.765	1027.7
320.65 K, x1 = 0.746	743.239	1001.8
320.65 K, x1 = 0.834	732.197	977.45
320.65 K, x1 = 0.902	723.589	958.35
320.65 K, x1 = 0.959	716.494	942.81
320.65 K, x1 = 1	711.25	931.73
323.15 K, x1 = 0.062	826.773	1187.7
323.15 K, x1 = 0.123	819.029	1169.7
323.15 K, x1 = 0.238	804.681	1136.3
323.15 K, x1 = 0.35	790.599	1103.9
323.15 K, x1 = 0.455	777.399	1073.7
323.15 K, x1 = 0.557	764.613	1044.6
323.15 K, x1 = 0.654	752.347	1017.1
323.15 K, x1 = 0.746	740.77	991.05
323.15 K, x1 = 0.834	729.685	966.6
323.15 K, x1 = 0.902	721.039	947.53
323.15 K, x1 = 0.959	713.92	931.92
323.15 K, x1 = 1	708.642	920.73
